Experimental findings from ChEMBL document CHEMBL5154722, “Identification of new potent anticancer derivatives through simplifying the core structure and modification on their 14- hydroxyl group from oridonin” (Eur J Med Chem, 2022) are described below.

Activity calls are given as the source filed them. No cut-off for these calls is given here.

The subject of data set [1] is MDA-MB-231. Nature of the data set: Antiproliferative activity against human MDA-MB-231 cells assessed as reduction in cell viability incubated for 72 hrs by MTT assay. The format is functional, cell-based. The conditions noted are these: MDA-MB-231, 72 h.
Data set [2] has as its system K562. Nature of the data set: Potency index, ratio of IC50 for oridonin to IC50 for test compound for antiproliferative activity against K562 cells. The format is functional, Homo sapiens.
Data set [3] has as its system MDA-MB-231. Nature of the data set: Potency index, ratio of IC50 for oridonin to IC50 for test compound for antiproliferative activity against MDA-MB-231 cells. It is filed as functional, Homo sapiens.
Data set [4] deals with SMMC-7721. Nature of the data set: Potency index, ratio of IC50 for oridonin to IC50 for test compound for antiproliferative activity against SMMC-7721 cells. It is filed as functional, Homo sapiens.
Data set [5] deals with MCF7. In words: Potency index, ratio of IC50 for oridonin to IC50 for test compound for antiproliferative activity against MCF7 cells. The format is functional, Homo sapiens.
For data set [6], the system named is MCF7. Nature of the data set: Antiproliferative activity against human MCF7 cells assessed as reduction in cell viability incubated for 72 hrs by MTT assay. The format is functional, cell-based. The settings on record: MCF7, 72 h.
The subject of data set [7] is SMMC-7721. Nature of the data set: Antiproliferative activity against human […] cells assessed as reduction in cell viability incubated for 72 hrs by MTT assay. The format is functional, cell-based. The settings on record: SMMC-7721, 72 h.
Data set [8] concerns K562. In words: Antiproliferative activity against human K562 cells assessed as reduction in cell viability incubated for 72 hrs by MTT assay. The format is functional, cell-based. The settings on record: K562, 72 h.
The subject of data set [9] is H22. Nature of the data set: Antiproliferative activity against mouse H22 cells assessed as reduction in cell viability incubated for 72 hrs by MTT assay. The format is functional, cell-based. The settings on record: H22, 72 h.
Data set [10] has as its system HeLa. In words: Antiproliferative activity against human HeLa cells assessed as reduction in cell viability incubated for 72 hrs by MTT assay. It is filed as functional, cell-based.
Data set [11] concerns SW480. Nature of the data set: Antiproliferative activity against human SW480 cells assessed as reduction in cell viability incubated for 72 hrs by MTT assay. The format is functional, cell-based. The conditions noted are these: SW480, 72 h.
The nature of data set [12]: Selectivity index, ratio of IC50 for human L02 cells to IC50 for human SMMC-7721 cells. It is filed as toxicity. The conditions noted are these: L02 cells and SMMC-7721 cells, read-out: Ratio IC50.
In data set [13] the test system is H22. In words: Antitumor activity against mouse H22 cells allografted in ICR mouse assessed as reduction in tumor volume at 20 mg/kg, iv administered once a day for 21 days after 7 days of tumor implantation measured every two days. The settings on record: time 21.0 day. The format is functional, organism-based.
Data set [14] in a line: Cytotoxicity against human L02 cells assessed as reduction in cell viability incubated for 72 hrs by MTT assay. The format is toxicity, cell-based.
Data set [15] deals with H22. Nature of the data set: Antitumor activity against mouse H22 cells allografted in ICR mouse assessed as reduction in tumor weight at 20 mg/kg, iv administered once a day for 21 days after 7 days of tumor implantation. The format is functional. On the set-up: scale not given: the % may be the effect or the level left. The conditions noted are these: time 21 day.
Data set [16] has as its system MGC-803. In words: Antiproliferative activity against human MGC-803 cells assessed as reduction in cell viability incubated for 72 hrs by MTT assay. The format is functional, cell-based. The settings on record: MGC-803, 72 h.
The nature of data set [17]: Antiproliferative activity against human U-87 MG cells assessed as reduction in cell viability incubated for 72 hrs by MTT assay. The format is functional, cell-based, U-87MG ATCC.
The nature of data set [18]: Toxicity in ICR mouse allografted with mouse H22 cells assessed as change in body weight at 20 mg/kg, iv administered once a day for 21 days after 7 days of tumor implantation measured every two days. The conditions noted are these: in vivo, 504 h, time 21 day. It is filed as organism-based.
Data set [19] concerns H22. In words: Antitumor activity against mouse H22 cells allografted in ICR mouse assessed as reduction in tumor weight at 8 mg/kg, iv administered every two days for 21 days after 7 days of tumor implantation. The format is functional. More on the design: scale not given: the % may be the effect or the level left. The conditions noted are these: time 21 day.
A short description of data set [20]: Toxicity in ICR mouse allografted with mouse H22 cells assessed as reduction in body weight at 8 mg/kg, iv administered every two days for 21 days after 7 days of tumor implantation measured every two days. The settings on record: in vivo, 504 h, time 21 day. The format is organism-based.

As to `C=C1C(=O)[C@@]23C(=O)C[C@@H]4C(C)(C)CCC[C@@]4(COC(C)=O)[C@@H]2CC[C@@H]1[C@H]3OC(C)=O`, the IC50 turned out to be 1670 nM in [1], 1300 nM in data set [6], 2090 nM in [7] and 990 nM in data set [8]. The “Ratio IC50” value in data set [2] is reported as 4; in data set [3], 6.9; in data set [4] it was 6.2; in data set [5] it was 8.5.
`C=C1C(=O)[C@]23[C@H](OC(=O)/C=C/c4ccncc4)[C@H]1CC[C@H]2[C@]12CCCC(C)(C)[C@H]1C[C@@]3(O)OC2`: the IC50 in data set [9] came out at 780 nM; in [1] it was 720 nM; in data set [10], 940 nM; in data set [11], 800 nM; in data set [6], 710 nM; in [7], 770 nM. For the same compound, the values for the IC50 in data set [8], in [16] and in data set [17] were 340 nM, 960 nM and 900 nM, respectively. Also, in [12], the selectivity ratio stood at 6.79. Further, in data set [13], the result was Active. Besides, the IC50 at 72 h in data set [14] is 5.24 µM. For the same compound, the Activity is listed as 52.34% in data set [15] and “Non-Toxic” in data set [18].
As for `C=C1C(=O)[C@]23[C@H](O)[C@H]1CC[C@H]2[C@@]12CO[C@]3(O)[C@@H](O)[C@@H]1C(C)(C)CC[C@@H]2O` [ORIDONIN], the IC50 is 4880 nM in data set [9]; 11600 nM in [1]; 17300 nM in data set [10]; 11600 nM in data set [11]; 11100 nM in data set [6]; 12600 nM in [7]. In addition, the concentration for half-maximal inhibition (IC50) in data set [16] is 15100 nM; in data set [17], 14000 nM. For the same compound, the selectivity ratio in data set [12] was 2.73. Moreover, the IC50 at 72 h in data set [14] stood at 34.3 µM.
Regarding `CC(=O)O[C@H]1C(=O)[C@@]2(C)[C@H]([C@H](OC(=O)c3ccccc3)[C@]3(O)C[C@H](OC(=O)[C@H](O)[C@@H](NC(=O)c4ccccc4)c4ccccc4)C(C)=C1C3(C)C)[C@]1(OC(C)=O)CO[C@@H]1C[C@@H]2O` [PACLITAXEL], the Activity in data set [19] is 90.39%; in data set [20], “Toxic”.
For the compound `C=C1C(=O)[C@]23[C@H](OC(=O)/C=C/c4ccncc4)[C@H]1CC[C@H]2[C@]12C=CCC(C)(C)[C@H]1[C@H](O)[C@@]3(O)OC2`, the IC50 came out at 360 nM in data set [9]; 640 nM in data set [1]; 970 nM in [10]; 1110 nM in data set [11]; 1310 nM in data set [6]; 350 nM in data set [7]. Moreover, the IC50 is 210 nM in [8], 1150 nM in data set [16] and 1160 nM in [17]. The selectivity ratio in data set [12] amounted to 17.7. The result in data set [13] was Active. Also, in data set [14], the IC50 at 72 h came out at 6.23 µM. Moreover, the values for the Activity in [15] and in [18] were 56.76% and “Non-Toxic”, respectively.
